Usually Kd stands for the constant that tells how readily two partners part at equilibrium.

This passage reports Kd results from BindingDB's records for patent US20240174621 (Hoffmann-La Roche, 2024).

Assay in all cases: Kinase Assay
Assay [1] deals with Tyrosine-protein kinase CSK (Homo sapiens, UniProt P41240). The text has this: (§1) The assay is not in detail.
For assay [2], the target named is Serine/threonine-protein kinase B-raf (Homo sapiens, UniProt P15056).
Description: as §1

Assay [3] addresses Tyrosine-protein kinase Lck (Homo sapiens, UniProt P06239).
Description: as §1

Assay [4] has as its target Serine/threonine-protein kinase B-raf [V600E] (Homo sapiens, UniProt P15056, V600E).
Description: as §1

For assay [5], the target named is RAF proto-oncogene serine/threonine-protein kinase (Homo sapiens, UniProt P04049).
Description: as §1

Chain of Tyrosine-protein kinase Lck (P06239 whole entry): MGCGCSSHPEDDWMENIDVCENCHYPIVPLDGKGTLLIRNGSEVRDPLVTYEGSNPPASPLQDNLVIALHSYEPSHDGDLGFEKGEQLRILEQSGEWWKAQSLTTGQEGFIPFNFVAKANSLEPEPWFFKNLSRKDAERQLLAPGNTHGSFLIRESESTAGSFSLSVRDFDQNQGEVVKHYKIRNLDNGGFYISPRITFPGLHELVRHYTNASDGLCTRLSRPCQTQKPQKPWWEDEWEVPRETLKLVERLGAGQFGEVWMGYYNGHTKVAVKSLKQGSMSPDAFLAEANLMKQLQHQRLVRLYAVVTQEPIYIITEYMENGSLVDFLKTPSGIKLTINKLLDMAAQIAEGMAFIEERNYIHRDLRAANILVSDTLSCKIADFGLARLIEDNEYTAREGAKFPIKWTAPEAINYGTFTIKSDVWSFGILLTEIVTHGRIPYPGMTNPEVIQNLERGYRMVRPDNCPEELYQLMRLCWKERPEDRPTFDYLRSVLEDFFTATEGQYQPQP
Chain of Serine/threonine-protein kinase B-raf [V600E] (P15056 2-766 V600E limits assumed): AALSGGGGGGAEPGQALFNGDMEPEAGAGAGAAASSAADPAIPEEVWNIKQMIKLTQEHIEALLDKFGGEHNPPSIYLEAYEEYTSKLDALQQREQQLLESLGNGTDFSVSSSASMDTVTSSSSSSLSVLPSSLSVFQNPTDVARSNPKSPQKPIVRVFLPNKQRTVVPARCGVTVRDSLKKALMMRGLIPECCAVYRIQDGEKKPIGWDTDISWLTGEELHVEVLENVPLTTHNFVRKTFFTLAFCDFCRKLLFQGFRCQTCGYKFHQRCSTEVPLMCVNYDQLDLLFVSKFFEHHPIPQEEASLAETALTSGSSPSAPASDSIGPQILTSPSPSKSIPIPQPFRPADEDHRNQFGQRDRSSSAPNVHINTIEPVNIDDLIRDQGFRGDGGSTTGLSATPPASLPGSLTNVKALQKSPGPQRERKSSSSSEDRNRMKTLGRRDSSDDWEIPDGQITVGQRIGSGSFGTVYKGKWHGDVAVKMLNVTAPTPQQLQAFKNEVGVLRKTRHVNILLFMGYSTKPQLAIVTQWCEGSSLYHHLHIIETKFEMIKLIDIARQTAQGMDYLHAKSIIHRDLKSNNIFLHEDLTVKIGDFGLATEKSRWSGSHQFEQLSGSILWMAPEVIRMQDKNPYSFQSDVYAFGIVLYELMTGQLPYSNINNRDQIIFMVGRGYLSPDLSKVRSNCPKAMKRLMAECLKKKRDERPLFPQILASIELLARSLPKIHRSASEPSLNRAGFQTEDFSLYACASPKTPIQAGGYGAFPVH
Chain of Serine/threonine-protein kinase B-raf (P15056 whole entry): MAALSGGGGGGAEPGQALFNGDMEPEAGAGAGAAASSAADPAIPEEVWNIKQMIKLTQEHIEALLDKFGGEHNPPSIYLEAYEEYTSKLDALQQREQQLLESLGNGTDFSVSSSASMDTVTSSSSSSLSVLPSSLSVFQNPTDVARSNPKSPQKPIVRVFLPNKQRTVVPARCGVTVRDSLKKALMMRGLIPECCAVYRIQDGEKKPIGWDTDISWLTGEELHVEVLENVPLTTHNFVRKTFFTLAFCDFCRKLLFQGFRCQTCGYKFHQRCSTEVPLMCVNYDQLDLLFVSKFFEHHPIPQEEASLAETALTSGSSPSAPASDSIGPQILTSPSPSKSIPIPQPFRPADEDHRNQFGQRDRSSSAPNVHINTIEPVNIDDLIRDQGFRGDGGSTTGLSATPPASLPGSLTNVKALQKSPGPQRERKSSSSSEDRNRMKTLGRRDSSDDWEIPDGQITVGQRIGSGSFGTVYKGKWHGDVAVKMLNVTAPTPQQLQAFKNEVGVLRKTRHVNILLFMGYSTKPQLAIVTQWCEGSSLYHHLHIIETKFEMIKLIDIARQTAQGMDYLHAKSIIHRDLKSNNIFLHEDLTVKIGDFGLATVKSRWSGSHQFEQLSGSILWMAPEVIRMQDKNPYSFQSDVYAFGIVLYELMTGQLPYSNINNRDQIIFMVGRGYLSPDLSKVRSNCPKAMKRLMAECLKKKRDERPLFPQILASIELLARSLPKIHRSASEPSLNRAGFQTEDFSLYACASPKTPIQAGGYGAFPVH
Chain of Tyrosine-protein kinase CSK (P41240 whole entry): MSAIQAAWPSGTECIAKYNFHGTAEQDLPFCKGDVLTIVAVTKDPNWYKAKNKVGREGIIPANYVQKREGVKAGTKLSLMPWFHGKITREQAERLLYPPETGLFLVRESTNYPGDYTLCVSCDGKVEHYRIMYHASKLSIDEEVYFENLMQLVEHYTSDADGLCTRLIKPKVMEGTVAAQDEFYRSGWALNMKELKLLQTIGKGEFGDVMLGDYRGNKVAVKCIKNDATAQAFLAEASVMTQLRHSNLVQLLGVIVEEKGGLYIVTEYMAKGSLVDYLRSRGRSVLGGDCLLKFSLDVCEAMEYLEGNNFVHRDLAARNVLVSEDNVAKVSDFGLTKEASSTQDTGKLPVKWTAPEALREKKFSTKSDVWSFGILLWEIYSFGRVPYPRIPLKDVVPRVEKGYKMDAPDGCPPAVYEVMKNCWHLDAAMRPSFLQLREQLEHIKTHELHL
Chain of RAF proto-oncogene serine/threonine-protein kinase (P04049 whole entry): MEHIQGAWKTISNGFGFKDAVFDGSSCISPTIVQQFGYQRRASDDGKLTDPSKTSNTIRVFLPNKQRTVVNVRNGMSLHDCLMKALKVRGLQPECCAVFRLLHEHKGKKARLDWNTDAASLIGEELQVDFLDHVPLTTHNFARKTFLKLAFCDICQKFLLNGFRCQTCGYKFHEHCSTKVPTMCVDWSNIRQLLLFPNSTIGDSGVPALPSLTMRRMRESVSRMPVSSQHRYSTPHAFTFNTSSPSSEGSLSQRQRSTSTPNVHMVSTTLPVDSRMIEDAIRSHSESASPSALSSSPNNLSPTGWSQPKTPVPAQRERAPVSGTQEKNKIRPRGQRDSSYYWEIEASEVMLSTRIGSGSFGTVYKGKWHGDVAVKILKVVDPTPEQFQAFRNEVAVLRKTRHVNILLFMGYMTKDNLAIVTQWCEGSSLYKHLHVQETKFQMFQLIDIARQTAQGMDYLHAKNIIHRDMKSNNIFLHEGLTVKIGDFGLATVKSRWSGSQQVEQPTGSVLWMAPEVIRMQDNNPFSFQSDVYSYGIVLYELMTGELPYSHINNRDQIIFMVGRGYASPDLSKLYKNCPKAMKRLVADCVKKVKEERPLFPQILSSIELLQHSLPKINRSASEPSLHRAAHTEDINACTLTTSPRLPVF

In the case of `CN(C)S(=O)(=O)Nc1ccc(Cl)c(Oc2ccc3ncn(C)c(=O)c3c2)c1C#N` [US20240174621, Example AR-30], the Kd turned out to be 8010 nM in assay [1]; 174 nM in assay [2]; 10400 nM in assay [3]; 504 nM in assay [4]; 822 nM in assay [5].
On to `Cn1cnc2ccc(Oc3c(Cl)ccc(NS(=O)(=O)N4CCCC4)c3C#N)cc2c1=O` [US20240174621, Example AR-31], for which the Kd in assay [1] was 1210 nM; in assay [2], 45.9 nM; in assay [3] it was 12000 nM; in assay [4], 119 nM; in assay [5], 190 nM.
